Bridge positions count the residues as written; N and C are the ends. Peptide text beside a SMILES is read from it. I, II: the chains in the order shown.
How the values were obtained:
[1] = target: T1, insulin receptor on the capillary endothelial cell (Bos taurus, UniProt F1MV64); assay: Competitive inhibition of 125I-insulin binding on bovine brain microvessel endothelial cell monolayers
T1 construct: endogenous in cells; host or cells: primary bovine brain microvessel endothelial cell monolayers
Protocol: In accordance with the description by Ronald T. Borchart et al. of the United States in "Characteristics of the Large Neutral Amino Acid Transport System of Bovine Brain Microvessel Endothelial Cell Monolayers" [Journal of Neurochemistry, Vol. 47, pp. 484-488 (1986)], bovine brain microvessel endothelial cells were separated in a monolayer, whose affinity for the receptor on the endothelial cell was determined.

[2] = compared with natural insulin; cited from earlier work

T1 sequence (F1MV64 28-1382): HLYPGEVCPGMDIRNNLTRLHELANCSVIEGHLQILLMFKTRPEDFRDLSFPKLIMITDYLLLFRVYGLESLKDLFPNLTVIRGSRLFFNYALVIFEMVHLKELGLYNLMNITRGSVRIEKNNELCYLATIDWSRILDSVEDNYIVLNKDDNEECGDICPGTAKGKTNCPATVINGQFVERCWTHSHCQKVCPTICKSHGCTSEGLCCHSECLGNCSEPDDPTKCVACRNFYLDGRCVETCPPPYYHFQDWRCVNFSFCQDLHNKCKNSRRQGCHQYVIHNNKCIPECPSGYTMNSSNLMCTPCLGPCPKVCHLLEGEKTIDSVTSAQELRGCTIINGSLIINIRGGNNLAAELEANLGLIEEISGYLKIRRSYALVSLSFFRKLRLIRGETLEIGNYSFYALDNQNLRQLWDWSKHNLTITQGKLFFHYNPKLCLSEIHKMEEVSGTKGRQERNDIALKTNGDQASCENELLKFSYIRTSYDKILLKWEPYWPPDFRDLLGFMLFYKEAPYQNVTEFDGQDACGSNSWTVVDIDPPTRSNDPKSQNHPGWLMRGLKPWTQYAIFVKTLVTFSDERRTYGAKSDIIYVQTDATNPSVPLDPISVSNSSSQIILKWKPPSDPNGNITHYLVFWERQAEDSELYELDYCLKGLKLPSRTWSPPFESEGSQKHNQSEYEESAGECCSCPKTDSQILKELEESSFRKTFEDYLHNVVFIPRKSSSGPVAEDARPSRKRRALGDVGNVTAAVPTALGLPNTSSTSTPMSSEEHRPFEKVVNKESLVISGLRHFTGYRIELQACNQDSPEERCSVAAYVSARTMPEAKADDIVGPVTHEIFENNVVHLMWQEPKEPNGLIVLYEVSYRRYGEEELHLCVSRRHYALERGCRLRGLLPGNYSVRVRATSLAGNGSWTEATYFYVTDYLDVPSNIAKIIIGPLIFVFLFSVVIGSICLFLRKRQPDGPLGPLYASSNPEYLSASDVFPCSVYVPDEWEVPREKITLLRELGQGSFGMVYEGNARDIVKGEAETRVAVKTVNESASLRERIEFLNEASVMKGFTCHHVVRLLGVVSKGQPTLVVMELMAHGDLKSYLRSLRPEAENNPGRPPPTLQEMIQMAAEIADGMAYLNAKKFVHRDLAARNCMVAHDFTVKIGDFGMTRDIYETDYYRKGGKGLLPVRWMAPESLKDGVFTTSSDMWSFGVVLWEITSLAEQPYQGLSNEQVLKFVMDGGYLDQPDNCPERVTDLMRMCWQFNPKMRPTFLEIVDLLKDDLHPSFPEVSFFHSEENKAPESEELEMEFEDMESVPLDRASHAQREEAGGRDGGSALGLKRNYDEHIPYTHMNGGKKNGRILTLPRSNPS

| Compound | 125I-insulin binding ratio (%) after addition of non-labeled compound ([1]; addition concentration 1.0 × 10 μM) | 125I-insulin binding ratio (%) after addition of non-labeled compound ([1]; addition concentration 1.0 × 10^2 μM (first line so printed)) | 125I-insulin binding ratio (%) after addition of non-labeled compound ([1]; addition concentration 1.0 × 10^2 μM (second line so printed)) | Affinity for the insulin receptor on the capillary endothelial cell (in words) ([1]; fragments obtained by solid phase synthesis, Examples 4 and 5) | Affinity for the receptor on the cerebral capillary endothelial cell (in words) ([1]; fragments obtained by trypsin digestion, Examples 1 and 2) | Insulin activity (in words) [2] |
| --- | --- | --- | --- | --- | --- | --- |
| CC[C@H](C)[C@H](NC(=O)CN)C(=O)N[C@H](C(=O)N[C@@H](CCC(=O)O)C(=O)N[C@@H](CCC(N)=O)C(=O)N[C@H]1CSSC[C@@H](C(=O)N[C@@H](CO)C(=O)N[C@@H](CC(C)C)C(=O)N[C@@H](Cc2ccc(O)cc2)C(=O)O)NC(=O)[C@H]([C@@H](C)CC)NC(=O)[C@H](CO)NC(=O)[C@H]([C@@H](C)O)NC(=O)[C@H](CSSC[C@H](NC(=O)[C@H](CC(C)C)NC(=O)[C@H](Cc2c[nH]cn2)NC(=O)[C@H](CCC(N)=O)NC(=O)[C@H](CC(N)=O)NC(=O)[C@@H](NC(=O)[C@@H](N)Cc2ccccc2)C(C)C)C(=O)NCC(=O)N[C@@H](CO)C(=O)N[C@@H](Cc2c[nH]cn2)C(=O)N[C@@H](CC(C)C)C(=O)N[C@H](C(=O)N[C@@H](CCC(=O)O)C(=O)N[C@@H](C)C(=O)N[C@@H](CC(C)C)C(=O)N[C@@H](Cc2ccc(O)cc2)C(=O)O)C(C)C)NC1=O)C(C)C [F001] (I: H-FVNQHLCGSHLVEALY-OH / II: H-GIVEQCCTSICSLY-OH; disulfide I:7-II:7, II:6-II:11) | 93.2 ± 0.4% | 61.6 ± 1.2% | 78.5 ± 3.8% | same affinity as insuline frogments obtained in Example 1 and 2 | showed affinity | – |
| (B25-30) pentapeptide deficient-[Phe^B25 -α-carboxyamide]insulin | – | – | – | – | – | acts as potently as natural insulin |
